From PMC12068934 (Nature chemistry, 2024)

What was measured:
OvsA = OvsA (Vreelandella halophila, UniProt A0A9X4Y9G9); assay: LC-MS after mBBr derivatization; assay type: biochemical; conditions: histidine 1 mM, DTT 4 mM, pH 8, room temperature
SenA = SenA (Variovorax paradoxus, UniProt A0ACH4EUD1); assay: preparative enzymatic synthesis, product NMR; assay type: biochemical; conditions: DTT 20 mM, pH 8, room temperature, 24 h

SMILES | LC-MS after mBBr derivatization (OvsA) | preparative enzymatic synthesis, product NMR (SenA; hercynine 5 mM) | preparative enzymatic synthesis, product NMR (SenA; SeGlcNAc 6 mM)
CC(=O)N[C@@H]1[C@@H](O)[C@H](O)[C@@H](CO)O[C@H]1[SeH] [SeGlcNAc, N-acetyl-1-seleno-β-D-glucosamine] | reaction of the NHISS with SeGlcNAc and histidine resulted in rapid formation of a species | large-scale reaction containing SenA and its substrates hercynine and SeGlcNAc | –
C[N+](C)(C)[C@@H](Cc1cnc[nH]1)C(=O)[O-] [hercynine, Nα-trimethylhistidine] | – | – | large-scale reaction containing SenA and its substrates hercynine and SeGlcNAc
